From PubChem BioAssay AID179 (DTP/NCI, 2004) come the findings set out here.

This experiment deals with CEM cells HIV-1 protection, formazan growth assay. Description: NCI AIDS Antiviral Assay. As to conditions: for IC50: measured here: growth of uninfected CEM cells. Put shortly: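 Soluble formazan readout of cell growth; CEM cells ± HIV-1; 5 drug concs. ≥50% protection → retest; ≥50% again = moderately active; reproducible 100% = confirmed active.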

Calls of active or inactive are those of the source.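 How the source made its calls: active means compounds giving half or more protection of infected cells from virus-caused growth loss, again on retest; inactive means the rest.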 Where a SMILES comes first, the peptide text is derived from it. The star is where a group is joined. Cbz = O=C(OCc1ccccc1)*

With `Cn1c(=O)sc2cc(C(=S)N3CCCCC3)ccc21`, the EC50 is > 200 µM and the IC50 was determined as 107 µM.
The like results for `CCOC(=O)C1=Nc2ccccc2N=C(C2C(=O)C=C(C)OC2=O)C1` (stereo not given) were, in that order, > 200 µM and > 200 µM.
As for `COC(=O)C1CCCC2(C1)OCCO2` (stereo not given), the EC50 is > 251 µM and the IC50 was > 251 µM.
Consider `NCCCC[C@H](NC(=O)[C@H](CS)NC(=O)[C@@H](N)Cc1cnc[nH]1)C(=O)N[C@@H](Cc1ccc(O)cc1)C(=O)N[C@@H](Cc1c[nH]c2ccccc12)C(=O)N[C@@H](Cc1c[nH]c2ccccc12)C(N)=O`, for which the EC50 was > 200 µM and the IC50 was > 200 µM.
Turning to `Cc1nc(C)c(Cc2ccccc2)o1`, the EC50 is > 200 µM and the IC50 was > 200 µM.
Consider `COC(=O)C1=C(C(=O)OC)C2CCC1CC2=O` (stereo not given), for which the EC50 is > 200 µM and the IC50 was found to be 44.7 µM.
Turning to `c1nc2nc3c(cn2n1)CCCCC3`, the EC50 is > 200 µM and the IC50 was > 200 µM.
Turning to `CC1=C(Br)C(c2ccccc2)=Nc2ccccc2N1`, the EC50 is > 200 µM and the IC50 was determined as 33.1 µM.
With `CC1=C/C(=C(/c2ccccc2S(=O)(=O)O)c2cc(C)c(O)c(CN(CC(=O)O)CC(=O)O)c2C)C(C)=C(CN(CC(=O)O)CC(=O)O)C1=O`, the outcome was inactive.
Turning to `Cc1cc(C)nc(NS(=O)(=O)c2ccc(Nc3c4ccccc4nc4c(C(=O)Nc5ccc(S(=O)(=O)Nc6cc(C)on6)cc5)cccc34)cc2)n1`, the EC50 was > 35.5 µM and the IC50 is > 35.5 µM.
For `C=C(C)CS(=O)(=O)O`, the EC50 is > 200 µM and the IC50 was > 200 µM.
As to `Cc1cc(Cl)ccc1NC(=O)C(=O)Cc1occc(=O)c1O`, the EC50 is > 295 µM and the concentration for half-maximal inhibition (IC50) was > 295 µM.
For the molecule `CS(=O)(=O)c1nc2ccc(N3C(=O)c4ccccc4C3=O)cc2s1`, the outcome was inactive.
As for `O=C(c1nc2ccc([N+](=O)[O-])cc2[nH]c1=O)C(O)c1ccc2c(c1)OCO2` (stereo not given), the EC50 is > 676 µM and the half-inhibitory concentration (IC50) amounted to 245 µM.
The like results for `COc1ccc2nc3cc(Cl)ccc3c(Sc3ccccc3[N+](=O)[O-])c2c1` were, in that order, > 9.55 µM and > 9.55 µM.
As for `CCCCCN(CCCCC)/N=C/c1c2c(O)c3c(O)c(C)c4c(c3c1O)C(=O)C(C)(O/C=C/C(OC)C(C)C(OC(C)=O)C(C)C(O)C(C)C(O)C(C)/C=C/C=C(C)C(=O)N2)O4` (stereo not given), the EC50 was > 200 µM and the IC50 turned out to be 8.32 µM.
Turning to `O=C(COc1ccc(OCC(=O)N2C(=O)CC(=O)N(c3ccccc3)C2=S)cc1)N1C(=O)CC(=O)N(c2ccccc2)C1=S`, the EC50 was > 141 µM and the IC50 amounted to 75.9 µM.
For the molecule `N=C(N)c1ccc(NC(=O)c2ccc(C(=O)Nc3ccc(C(=N)N)cc3)c(N)c2)cc1`, the EC50 was 53.7 µM and the IC50 is > 200 µM.
With `CCN(c1ccc(Br)cc1)c1c(Br)c(=O)nc2ccccn12`, the EC50 is > 525 µM and the IC50 was 97.7 µM.
`C/C=C\C(O)C#Cc1cnc(OC)nc1OC` (stereo not given): the EC50 is > 200 µM and the IC50 was determined as 42.7 µM.
With `CC(=O)NC1C(OCc2ccccc2)OC(CO)C(O)C1OC(C)C(=O)NC(C(=O)NC(CCC(=O)NCCCCNc1c2ccccc2nc2cccc([N+](=O)[O-])c12)C(N)=O)C(C)C` (stereo not given), the EC50 was > 100 µM and the IC50 turned out to be 1.12 µM.
In the case of `O=C1CC(NC(=O)C(F)(F)F)c2c(Br)sc(N3CCOCC3)c21` (stereo not given), the EC50 was > 200 µM and the half-maximal inhibitory concentration (IC50) was > 200 µM.
As for `O=c1ccn([C@@H]2C[C@H]2CO)c(=O)[nH]1`, the result was inactive.
Consider `COc1ccccc1-n1cnc2c1NC(C)(C)N=C2C(N)=O`, for which the EC50 is > 200 µM and the IC50 was > 200 µM.
For the molecule `CC1N=C(SCc2ccc(Cl)cc2)N2C(C)N=C(SCc3ccc(Cl)cc3)N12` (stereo not given), the EC50 is > 21.9 µM and the IC50 was > 21.9 µM.
`O=C(CC(C(=O)c1ccsc1)c1ccc2c(c1)OCO2)c1ccccc1` (stereo not given): the EC50 is > 200 µM and the IC50 was > 200 µM.
Take `C=CCC1(O)CC(n2ccc(=O)[nH]c2=O)OC1CO[Si](C)(C)C(C)(C)C` (stereo not given): the EC50 is > 200 µM and the half-maximal inhibitory concentration (IC50) is > 100 µM.
In the case of `CC(C)[C@@H]1C=C(c2ccccc2)c2ccccc2C1C(C#N)(C#N)C(C)C` (stereo not given in full), the EC50 was > 20.4 µM and the IC50 was > 20.4 µM.
Consider `Cc1c(N)nc(C(CC(N)=O)NCC(N)C(N)=O)nc1C(=O)NC(C(=O)NC(C)C(O)C(C)C(=O)NC(C(=O)NCCc1nc(-c2nc(C(=O)NCCCNCCCCN)cs2)cs1)C(C)O)C(OC1OC(CO)C(O)C(O)C1OC1OC(CO)C(O)C(OC(N)=O)C1O)c1cnc[nH]1` (stereo not given), for which the outcome was inactive.
Consider `COC(=O)C1Cc2c([nH]c3ccccc23)-c2[nH]c3ccccc3c2CC(NC(C)=O)C(=O)NCC(=O)N1` (stereo not given), for which the EC50 is > 200 µM and the IC50 was > 200 µM.
With `CCc1cc(CCC(=O)Nc2c(C)cccc2C)[nH]n1`, the EC50 was > 912 µM and the IC50 is > 912 µM.
Regarding `O=[N+]([O-])c1ccc(N2CCOS(=O)OCC2)cc1`, the EC50 is > 200 µM and the concentration for half-maximal inhibition (IC50) is > 200 µM.
For `COC(=O)C12C3C4C1C1C2C3C41C(=O)NC(C)(C)CC(=O)O` (stereo not given), the EC50 was > 200 µM and the IC50 is > 200 µM.
With `N#CC[C@@H](O)COc1ccccc1`, the EC50 was > 200 µM and the IC50 was > 200 µM.
In the case of `CSc1cc(-c2ccccn2)nc(-c2ccccn2)c1.CSc1cc(-c2ccccn2)nc(-c2ccccn2)c1.[Ni+2].[O-][Cl+3]([O-])([O-])[O-]`, the EC50 was > 200 µM and the IC50 was > 200 µM.
For `S=C1C(=Nc2ccccc2)N(C2CCCCC2)C(=NC2CCCCC2)N1c1ccccc1`, the EC50 was > 200 µM and the IC50 came out at 141 µM.
Take `Cc1cc(C)n(-c2nsc3ccccc23)n1`: the EC50 is > 112 µM and the half-maximal inhibitory concentration (IC50) was > 112 µM.
Turning to `[O]=[Sb][c]1ccc(C(=O)O)cc1`, the 50% effective concentration (EC50) is > 200 µM and the IC50 was 26.3 µM.
Take `O=C(/C(=C/c1ccc([N+](=O)[O-])cc1)c1ccccc1)c1ccccc1`: the EC50 was > 8.32 µM and the IC50 is 5.25 µM.
With `CCOc1ccncc1[N+](=O)[O-]`, the EC50 is > 200 µM and the IC50 is > 200 µM.
With `O=C(Nc1cccc(C(F)(F)F)c1)C(=O)C1NC(=S)NC1=O` (stereo not given), the EC50 is > 191 µM and the IC50 is > 191 µM.
Take `CC1CC/C(=[N+](/C)Nc2ccc([N+](=O)[O-])cc2[N+](=O)[O-])C2CCC(C(C)C(=O)O)C=C12` (stereo not given): the outcome was inactive.
On to `COc1cc2c(cc1OC)-c1cc3cc(OC)c(OC)cc3n1CC2`, for which the EC50 is > 4.27 µM and the 50% inhibitory concentration (IC50) came out at 2.4 µM.
With `O=C1CC2C3C1N(c1ccc(Cl)cc1)C1(Nc4ccc(Cl)cc4)C(=O)CC(C31)N2c1ccc(Cl)cc1` (stereo not given), the EC50 is > 200 µM and the IC50 was determined as 33.9 µM.
In the same order, the values of `NCCCN1c2ccccc2Sc2ccc(Cl)cc21` are > 200 µM and 10.7 µM.
In the case of `CCCCCCCCCC(=O)OCC1OC(n2cc(F)c(=O)[nH]c2=O)C(N)C(OC(=O)CCCCCCCCC)C1O` (stereo not given), the EC50 was > 31.6 µM and the concentration for half-maximal inhibition (IC50) was > 31.6 µM.
For the molecule `O=C1OC[C@@H]2[C@@H](O)CCCCCN12`, the EC50 was > 200 µM and the IC50 is > 200 µM.
With `O=C1N[C@@H]([C@H](CCCCCO)OC(=O)c2ccccc2)CO1`, the EC50 is > 200 µM and the IC50 was > 200 µM.
Consider `C=CCNC(=O)NCCCCC(NC(C)=O)C(=O)NCc1ccccc1` (stereo not given), for which the EC50 was > 692 µM and the IC50 is > 692 µM.
Consider `COc1ccc(NC(=S)N/N=C/c2c(C)n(C)n(-c3ccccc3)c2=O)cc1`, for which the EC50 is > 200 µM and the IC50 stood at 115 µM.
Regarding `Cc1cc(N(CCC#N)CCC#N)ccc1/C=C/C(=O)Nc1cccc(Cl)c1`, the EC50 was > 66.1 µM and the 50% inhibitory concentration (IC50) is > 66.1 µM.
In the case of `COc1ccccc1[B-]12OCC[N+]1(CNC(=O)C1=C(O)C3(O)C(=O)C4=C(O)c5c(O)cccc5C(C)(O)C4CC3C(N(C)C)C1=O)CCO2` (stereo not given), the EC50 is > 27.5 µM and the IC50 was > 27.5 µM.
For `CCOC(=O)CCC(NC(=O)C(CC(=O)OC)NC(=O)OCc1ccccc1)C(=O)NC(CC(=O)OC)C(=O)NC(CCC(=O)OCC)C(=O)NC(CC(=O)OC)C(=O)NC(CCC(=O)OCC)C(=O)NC(CC(=O)OC)C(=O)NC(CCC(=O)OCC)C(=O)NC(CC(=O)OC)C(=O)NC(CCC(=O)OCC)C(=O)NC(CC(=O)OCC)C(=O)OCC` (stereo not given) (Cbz-D(OMe)E(OEt)D(OMe)E(OEt)D(OMe)E(OEt)D(OMe)E(OEt)D(OMe)E(OEt)D(OEt)-OEt; configuration not given here), the EC50 is > 50.1 µM and the IC50 was > 50.1 µM.
`NCCCCNCCCNC(=O)c1nc(-c2csc(CCN)n2)sc1Cl`: the EC50 is > 200 µM and the IC50 was > 200 µM.
Regarding `COC(=O)Cc1ccc2c(cnn2-c2ccccc2)c1OC`, the EC50 is > 200 µM and the IC50 was 89.1 µM.
The like results for `COc1cc(C2c3cc4c(cc3OC3(O)COC(=O)C23)OCO4)cc(OC)c1OC` (stereo not given) were, in that order, > 200 µM and 105 µM.
Take `COc1cccc(/C=N/[N-]C(N)=O)c1[O-].[Cu+2].c1ccncc1`: the EC50 is > 5.75 µM and the IC50 was > 5.75 µM.
For `Cc1[nH]cc2c1C(c1ccccc1)=NCC(=O)N2`, the EC50 was > 200 µM and the IC50 is > 200 µM.
With `CCOC(=O)CSC1NC(C(=O)OC)CC1OC` (stereo not given), the EC50 is > 200 µM and the half-maximal inhibitory concentration (IC50) was > 200 µM.
On to `CCOC(=O)/C(C#N)=C/c1ccc(OC)cc1`, for which the EC50 is > 155 µM and the IC50 is > 155 µM.
On to `O=C1c2ccccc2Sc2ccccc2N1C(=O)C1CC1`, for which the EC50 is 39.8 µM and the 50% inhibitory concentration (IC50) stood at 55 µM.
In the same order, the values of `C/C(=N\NC(=O)C[N+](C)(C)C)c1sc(-c2cccnc2)nc1C` are > 135 µM and 72.4 µM.
The like results for `Cc1cn(C2CC(Br)=NO2)c(=O)[nH]c1=O` (stereo not given) were, in that order, > 200 µM and 34.7 µM.
Take `CC(C1=CC=C2[C@@H]3CCC4CC(N(C)C)CC[C@]4(C)C3CC[C@]12C)N(C)C=O` (stereo not given in full): the EC50 is > 35.5 µM and the IC50 is > 35.5 µM.
As to `Cc1ccc(C(=O)c2cccc(C)c2C(=O)O)c(C)c1`, the EC50 is > 200 µM and the IC50 is > 200 µM.

What is called EC50 is the concentration needed to bring the measured effect to its halfway point. The term IC50 denotes the concentration that gives 50% inhibition.
